The target in one data set is human BACE1 (Homo sapiens, UniProt P56817). Put plainly: Fluorescent kinetic assay: Evaluation of BACE-1 Binding Affinity of Test Compounds. The data set is classed as biochemical. To be noted: 10 nM enzyme, 25 μM substrate WABC-6, 50 mM Na-Acetate pH 4.5, room temperature. As to the method:
Evaluation of BACE-1 Binding Affinity of Test Compounds
Fluorescent Kinetic Assays
Final Assay Conditions: 10 nM human BACE1 (or 10 nM Murine BACE1, 1.5 nM human BACE2), 25 μM substrate (WABC-6, MW 1549.6, from AnaSpec), Buffer: 50 mM Na-Acetate, pH 4.5, 0.05% CHAPS, 25% PBS, room temperature. Na-Acetate was from Aldrich, Cat.# 24, 124-5, CHAPS was from Research Organics, Cat. # 1304C 1×, PBS was from Mediatech (Cellgro), Cat# 21-031-CV, peptide substrate Abz[…]pa was from AnaSpec, Peptide Name: WABC-6 Determination of stock substrate (Abz[…]pa) concentration: ˜25 mM stock solution is made in DMSO using the peptide weight and MW, and diluted to ˜25 μM (1:1000) in 1×PBS. Concentration is determined by absorbance at 354 nm using an extinction coefficient ε of 18172 M^−1 cm^−1, the concentration of stock substrate is corrected, and the substrate stock stored in small aliquots in −80° C. [Substrate Stock]=ABS^354 nm*10^6/18172 (in […]) The extinction coefficient ε^354 nm was adapted from TACE peptide substrate, which had the same quencher-fluorophore pair.
Determination of Stock Enzyme Concentration: the stock concentration of each enzyme is determined by absorbance at 280 nm using an ε of 64150 M^−1 cm^−1 for hBACE1 and MuBACE1, 62870 M^−1 cm^−1 for hBACE2 in 6 M Guanidinium Hydrochloride (from Research Organics, Cat. # 5134G-2), pH ˜6. The extinction coefficient ε^280 nm for each enzyme was calculated based on known amino acid composition and published extinction coefficients for Trp ([…]) and Tyr ([…]) residues (Anal. Biochem. 182, 319-326).
Dilution and mixing steps: total reaction volume: 100 μL
2× inhibitor dilutions in buffer A(66.7 mM Na-Acetate, pH 4.5, 0.0667% CHAPS) were prepared,
4× enzyme dilution in buffer A(66.7 mM Na-Acetate, pH 4.5, 0.0667% CHAPS) were prepared,
100 μM substrate dilution in 1×PBS was prepared, and
50 μL 2× Inhibitor, 25 μL 100 μM substrate are added to each well of 96-well plate (from DYNEX Technologies, VWR #: 11311-046), immediately followed by 25 μL 4× enzyme (added to the inhibitor and substrate mix), and the fluorescence readings are initiated.
Fluorescence Readings: Readings at λex 320 nm and λem 420 nm are taken every 40 sec for 30 min at room temperature and the linear slope for substrate cleavage rate (vi) determined.
Testing at least 10 different inhibitor concentrations is preferred.

The structures appear in SMILES notation.

Chain of human BACE1 (P56817 46-501): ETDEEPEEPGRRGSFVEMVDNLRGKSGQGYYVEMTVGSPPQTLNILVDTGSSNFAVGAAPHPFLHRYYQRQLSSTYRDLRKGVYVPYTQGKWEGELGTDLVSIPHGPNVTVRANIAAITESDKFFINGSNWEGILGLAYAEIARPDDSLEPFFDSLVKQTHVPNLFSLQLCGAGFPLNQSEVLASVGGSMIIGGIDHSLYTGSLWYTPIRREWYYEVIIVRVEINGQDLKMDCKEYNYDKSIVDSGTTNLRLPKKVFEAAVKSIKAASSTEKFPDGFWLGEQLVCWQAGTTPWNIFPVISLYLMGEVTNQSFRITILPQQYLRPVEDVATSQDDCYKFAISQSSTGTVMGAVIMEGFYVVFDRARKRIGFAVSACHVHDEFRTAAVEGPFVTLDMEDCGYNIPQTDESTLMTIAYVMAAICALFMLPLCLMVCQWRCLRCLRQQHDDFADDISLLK

One may read the melting point as the temperature of the solid-liquid transition. The term IC50 denotes the midpoint of a concentration-inhibition curve. Read a high IC50 as a need for much substance. The compound `CN1C(=O)C(c2cccc(OCC3CC3)c2)(c2cnn(CC(F)(F)F)c2)N=C1N` (stereo not drawn) [Example 71, 2-amino-5-[3-(cyclopropylmethoxy)phenyl]-3-methyl-5-[1-(2,2,2-trifluoroethyl)-1H-pyrazol-4-yl]-3,5-dihydro-4H-imidazol-4-one] gave a melting point of 78 to 80 °C. Moreover, at human BACE1, the IC50 fell in the range of 110 to 1000 nM.
The corresponding values for `CN1C(=O)C(c2ccc(OC(F)F)cc2)(c2cnn(Cc3ccccc3)c2)N=C1N` (stereo not drawn) [Example 75] are 74 to 76 °C and more than 1000 nM.
`CN1C(=O)C(c2cccc(-c3cncnc3)c2)(c2cc(C#N)n(CCF)c2)N=C1N` (stereo not drawn) [Example 228] displayed a melting point of 193 to 194 °C. In addition, on human BACE1, the IC50 lay within 110 to 1000 nM.
Take `CCCC(=O)Nc1cccc(C2(c3cc(C(=O)CC)n(CC)c3)N=C(N)N(C)C2=O)c1` (stereo not drawn) [Example 129, N-{3-[2-amino-4-(1-ethyl-5-propionyl-1H-pyrrol-3-yl)-1-methyl-5-oxo-4,5-dihydro-1H-imidazol-4-yl]-phenyl}-butyramide]: the melting point was 201 to 205 °C. The IC50 at human BACE1 fell in the range of 110 to 1000 nM.
The like results for `CCn1cc(C2(c3cccc(-c4cccnc4F)c3)N=C(N)N(C)C2=O)cc1C=O` (stereo not drawn) [Example 233, 4-[2-amino-4-[3-(2-fluoropyridin-3-yl)phenyl]-1-methyl-5-oxo-4,5-dihydro-1H-imidazol-4-yl]-1-ethyl-1H-pyrrole-2-carbaldehyde] were, in that order, 198 to 201 °C and 10 to 100 nM.
Turning to `CN1C(=O)C(c2cccc(-c3cncnc3)c2)(c2cnn(CCC(C)(C)C)c2)N=C1N` (stereo not drawn) [Example 106], the melting point lay within 93 to 96 °C. Further, the IC50 at human BACE1 lay within 10 to 100 nM.
The like results for `COC(=O)c1cc(C2(c3cccc(-c4cccc(C#N)c4)c3)N=C(N)N(C)C2=O)cn1CCF` (stereo not drawn) [Example 194] were, in that order, 98 to 101 °C and 10 to 100 nM.
`COC(=O)c1cc(C2(c3ccc(F)c(-c4cccnc4F)c3)N=C(N)N(C)C2=O)cn1CCF` (stereo not drawn) [Example 122] showed a melting point of 127 to 128 °C. This compound also gave an IC50 on human BACE1 of 10 to 100 nM.
The like results for `COC(=O)c1cc(C2(c3cccc(-c4ccc5c(c4)OCO5)c3)N=C(N)N(C)C2=O)cn1CCF` (stereo not drawn) [Example 199] were, in that order, 137 to 140 °C and 110 to 1000 nM.
The like results for `CCC(=O)c1cc(C2(c3cccc(-c4cccnc4F)c3)N=C(N)N(C)C2=O)cn1CCCCF` (stereo not drawn) [Example 178] were, in that order, 105 °C and 10 to 100 nM.
`CN1C(=O)C(c2cccc(-c3cccnc3F)c2)(c2cnn(C3CCCC3)c2)N=C1N` (stereo not drawn) [Example 100] registered a melting point of 106 to 109 °C. In addition, the IC50 on human BACE1 was 10 to 100 nM.
The corresponding values for `CCn1cc(C2(c3cccc(-c4cccnc4F)c3)N=C(N)N(C)C2=O)cc1C(=O)NC` (stereo not drawn) [Example 157] are 138 to 140 °C and 10 to 100 nM.
The like results for `CCOC(=O)c1cc(C2(c3ccc(F)c(-c4cccnc4F)c3)N=C(N)N(C)C2=O)cn1CC` (stereo not drawn) [Example 125] were, in that order, 114 to 115 °C and 10 to 100 nM.
Turning to `CC(C)Cn1cc(C2(c3cccc(-c4cccnc4F)c3)N=C(N)N(C)C2=O)cn1` (stereo not drawn) [Example 3, 2-Amino-5-[3-(2-fluoropyridin-3-yl)phenyl]-5-(1-isobutyl-1H-pyrazol-4-yl)-3-methyl-3,5-dihydro-4H-imidazol-4-one], the melting point fell in the range of 94 to 98 °C. The IC50 on human BACE1 was 10 to 100 nM.
The corresponding values for `CN1C(=O)C(c2cccc(OCC3CC3)c2)(c2cnn(CCF)c2)N=C1N` (stereo not drawn) [Example 70, 2-amino-5-[3-(cyclopropylmethoxy)phenyl]-5-[1-(2-fluoroethyl)-1H-pyrazol-4-yl]-3-methyl-3,5-dihydro-4H-imidazol-4-one] are 70 to 72 °C and 110 to 1000 nM.
The corresponding values for `CCC(=O)c1cc(C2(c3cccc(-c4cccnc4F)c3)N=C(N)N(C)C2=O)cn1C` (stereo not drawn) [Example 180] are 107 to 111 °C and 10 to 100 nM.
The corresponding values for `CC(C)CCn1cc(C2(c3cccc(-c4cncnc4)c3)N=C(N)N(C)C2=O)cn1` (stereo not drawn) [Example 108] are 87 to 90 °C and 10 to 100 nM.
`CCn1cc(C2(c3cccc(-c4cccnc4F)c3)N=C(N)N(C)C2=O)cc1C(=O)NC1CCCC1` (stereo not drawn) [Example 162] yielded a melting point of 127 to 128 °C. The same compound registered an IC50 at human BACE1 of 110 to 1000 nM.
As for `CCn1cc(C2(c3cccc(-c4cccnc4F)c3)N=C(N)N(C)C2=O)cc1C(=O)NCc1ccc(F)cc1` (stereo not drawn) [Example 166], the melting point lay in the range of 110 to 112 °C. The IC50 at human BACE1 fell in the range of 110 to 1000 nM.
`CCCCOc1cccc(C2(c3cc(C(=O)CC)n(CC)c3)N=C(N)N(C)C2=O)c1` (stereo not drawn) [Example 136] had a melting point of 76 °C. Moreover, the half-maximal inhibitory concentration (IC50) on human BACE1 was 110 to 1000 nM.
The corresponding values for `CC(C)OC(=O)c1cc(C2(c3ccc(F)c(-c4cccnc4F)c3)N=C(N)N(C)C2=O)cn1CCF` (stereo not drawn) [Example 124] are 117 to 118 °C and 110 to 1000 nM.
The like results for `CCC(O)c1cc(C2(c3cccc(-c4cccnc4F)c3)N=C(N)N(C)C2=O)cn1CC` (stereo not drawn) [Example 240, 2-Amino-5-[1-ethyl-5-(1-hydroxypropyl)-1H-pyrrol-3-yl]-5-[3-(2-fluoropyridin-3-yl)phenyl]-3-methyl-3,5-dihydro-4H-imidazol-4-one] were, in that order, 115 to 121 °C and 110 to 1000 nM.
The corresponding values for `CN1C(=O)C(c2cccc(-c3cccnc3F)c2)(c2cc(CN3CCCC3)n(CCF)c2)N=C1N` (stereo not drawn) [Example 237] are 110 to 120 °C and more than 1000 nM.
With `COc1cccc(-c2cc(C3(c4cnn(C(C)C)c4)N=C(N)N(C)C3=O)ccc2F)c1` (stereo not drawn) [Example 98], the melting point was in the range of 112 to 114 °C. This compound also yielded an IC50 on human BACE1 of 10 to 100 nM.
The corresponding values for `CN1C(=O)C(c2cccc(-c3cc(F)ccc3F)c2)(c2cnn(CC(F)(F)F)c2)N=C1N` (stereo not drawn) [Example 84] are 98 to 100 °C and 110 to 1000 nM.
The like results for `CCC(=O)c1cc(C2(c3cccc(-c4cccnc4F)c3)N=C(N)N(C)C2=O)cn1CC(F)(F)F` (stereo not drawn) [Example 200, 2-Amino-5-[5-propionyl-1-(2,2,2-trifluoroethyl)-1H-pyrrol-3-yl]-5-[3-(2-fluoropyridin-3-yl)phenyl]-3-methyl-3,5-dihydro-4H-imidazol-4-one] were, in that order, 108 to 110 °C and 10 to 100 nM.
The corresponding values for `CCC(=O)c1cc(C2(c3ccc(F)c(-c4cncnc4)c3)N=C(N)N(C)C2=O)cn1CC(F)(F)F` (stereo not drawn) [Example 208] are 225 to 226 °C and 10 to 100 nM.
`CCCn1cc(C2(c3cccc(-c4cncnc4)c3)N=C(N)N(C)C2=O)cc1C#N` (stereo not drawn) [Example 229] registered a melting point of 165 to 166 °C. Also, the concentration for half-maximal inhibition (IC50) at human BACE1 was 10 to 100 nM.
The corresponding values for `CCn1cc(C2(c3ccc(F)c(-c4cccnc4F)c3)N=C(N)N(C)C2=O)cc1C(=O)OC` (stereo not drawn) [Example 123] are 113 to 115 °C and 10 to 100 nM.
`CN1C(=O)C(c2cccc(-c3cc(C#N)ccc3F)c2)(c2cnn(CC(F)(F)F)c2)N=C1N` (stereo not drawn) [Example 86]: the melting point was 118 to 120 °C. On human BACE1, this compound registered an IC50 of 110 to 1000 nM.

The record behind these values is US7705030B2, “Amino-5-(5-membered)hetero-arylimidazolone compounds and the use thereof for β-secretase modulation” (Wyeth LLC, priority 2005, dated 2010).
